Data reported in US20090036518A1, “PHARMACEUTICAL COMPOSITION CONTAINING FLAVONOIDS” (TAIPEI MEDICAL UNIVERSITY, priority 2005, published 2009).
Read-outs that look alike come from different tables or passages of the source.

Experiments:
PDE4 [1] = experiment: Assay I: inhibition of cyclic nucleotide PDE activity (cAMP hydrolysis by PDE4); assay type: biochemical; details: guinea pig PDE4; 1 μM cAMP substrate; mean±S.E.M.; read-out: PDE4L (IC50) on PDE4 activity
Method: Under a protocol approved by the Animal Care and Use Committee of Taipei Medical University, five male guinea pigs (Hartley), weighing 500-600 g, are sacrificed. The lungs (15 g) or hearts (4 g) taken therefrom are chopped into small pieces and homogenized with a glass/teflon homogenizer (Glas-Col, Terre Haute, Ind., USA) in 10 volumes of cold medium (pH 6.5) containing 20 mM Bis-tris, 2 mM benzamidine, 2 mM EDTA, 50 mM sodium chloride, 0.1 mM phenylmethanesulfonyl fluoride (PMSF), and 1 mM dithiothreitol. At 4 , the homogenate is centrifuged at 170 g for 15 min, and the supernatant thereof is then re-centrifuged at 40,000 g for 30 min. […] The column is washed with two bed volumes of homogenate buffer to remove unbound material, where the resin beads therein will bind with proteins, such as PDE proteins. Proteins bound to the Q-Sepharose beads are eluted with various concentrations (0.23, 0.34, 0.44, 0.69, and 1.00 M) of NaCl dissolved in homogenate buffer (for each concentration, 40-50 mL elution buffer are applied) at a flow rate of 30 ml/h. Fractions (3 ml each) are collected, and ethylene glycol (EG) is added thereto until a final concentration of 30% (v/v). And then the samples are frozen at […].
The activities of PDE4 in the homogenate are measured with a two-step procedure according to the method of Thompson and Appleman, using cAMP with [^3H]-cAMP or cGMP with [^3H]-cGMP as substrates. The PDE enzyme prepared (25 μl) with 10 μl inhibitor or the solvents therefor is incubated for 30 min at 37 °C in a total assay buffer, where the final volume of the assay is amounted to 100 μl. In accordance with the features of the PDE isozymes, the assay buffer contains 50 mM Tris/HCl (pH 7.4), 3 mM MgCl2, 1 mM dithiothreitol, and 0.05% BSA, and optionally contains 1 μM cAMP with 0.2 μCi [^3H]-cAMP as a substrate alone or in the presence of 0.1 unit calmodulin with 10 μM CaCl2, or 5 μM cGMP, and 1 μM cGMP with 0.2 μCi [^3,H]-cGMP as another substrate alone or in the presence of 0.1 unit calmodulin with 10 μM CaCl2.
The PDE enzyme and the inhibitors (or their solvent) therefor are mixed and incubated on ice for 30 min previously, and then mixed with the assay buffer. The assay is initiated by transferring the mixture to a water bath at 37 °C. Following the other 30 min incubation, the reaction is stopped by transferring the reaction vessel to a bath of boiling water for 3 min. After cooling on ice, 20 μl of the 1 mg/ml of Crotalus atrox venom is added to the reaction mixture, and the mixture is incubated at 37 °C for 10 min. The uncatalyzed substrates, such as cAMP, [^3H]-cAMP, cGMP, or [^3H]-cGMP are removed by the addition of 500 μl of a 1-in-1 Tris-HCl (40 mM) buffer suspension of Dowex resin (1×8-200) with incubation on ice for 30 min, since the bindings of the cyclic nucleotides and the resin. Each tube is then centrifuged for 2 min at 6000 rpm (3700 g), and 100 μl of the supernatant is removed and counted by a β-counter for calculating the enzyme (PDEs) activity.
The dissociation constant of inhibitor binding (Ki) value is determined from the equation of apparent Km as a function of the inhibitor concentration (insert in A and B, respectively). The slope of the equation is equal to the value of […] (where KM is Michaelis constant). The amounts of the total proteins are calculated based on the analytical method reported by Bradford. In FIGS. 1A to 1D, all enzyme activities are shown as nmole of substrate per mg of proteins per minute (nmole/mg/min) hydrolyzed.

[2] = target: T1, high affinity rolipram binding sites (HARBS) of the PDE4 (PDE4H); experiment: Assay II: replacement of [3H]-rolipram bound on particulate HARBS of whole brain; design: species or system guinea pig; details: guinea pig whole brain particulates, 2 nM [3H]-rolipram, mean±S.E.M., read-out: PDE4H (EC50) for replacing high-affinity [3H]-rolipram binding
T1 construct: other: guinea pig whole brain particulates; 2 nM [3H]-r; guinea pig whole brain particul
Method: (§1) The binding experiments are carried on basis of the methods of Schneider et al and Zhao et al with a small modification. Under a protocol approved by the Animal Care and Use Committee of Taipei Medical University, five male guinea pigs (Hartley), weighing 500-600 g, are anesthetized. The whole brains taken therefrom are homogenized with in 10 volumes of cold medium (pH 6.5) containing 20 mM Bis-tris, 2 mM benzamidine, 2 mM EDTA, 50 mM sodium chloride, 0.1 mM phenylmethanesulfonyl fluoride (PMSF), and 1 mM dithiothreitol. At 4[…], the homogenate is centrifuged at 170 g for 15 min for removing blood vessels and connective tissues, and the supernatant thereof is then re-centrifuged at 40,000 g for 30 min for separating the particulates from the cytosol of cells.
(§2) The final concentration of [^3H]-rolipram is 2 nM. […] After incubation, the reaction is stopped by transferring the reaction vessel to a bath of crashed ice. Then the reaction mixture is filtered through a punched glass fiber filter (Whatman GF/B) placed in a mini funnel, which is adopted to a 1.5 ml of Eppendorff's tube for collecting the filtrate in the mini centrifuge at 1000 rpm (100 g) for 10 seconds. By the same way (centrifugation), it is further washed with 0.3 ml reaction buffer each for three times. The Whatman GF/B filter is mixed with 2 ml of cocktail and counted by the β-scintillation counter (Backman, Fullerton, Calif., USA) for counting the radioactivity thereof.

[3] = system: high affinity rolipram binding sites (HARBS) of the PDE4 (PDE4H); experiment: as above; design: species or system guinea pig; details: ratio of HARBS EC50 to PDE4 IC50
Method: as §1, §2

PDE4 [4] = details: cited from earlier work
PDE4H = details: cited from earlier work; for PDE4H/PDE4L ratio: literature values [23-26]

SMILES | IC50 (PDE4 [1]) [µM] | EC50 [2] [µM] | PDE4H/PDE4L ratio (EC50/IC50) [3] | also measured
COc1ccc(C2CC(=O)c3c(O)cc(O)cc3O2)cc1O (stereo not drawn) [Hesperetin] | 28.2 ± 1.1 | > 300 | – | –
CC(=O)Oc1cc(OC(C)=O)c2c(=O)c(OC(C)=O)c(-c3ccc(OC(C)=O)c(OC(C)=O)c3)oc2c1 [Quercetin-3,5,7,3′,4′-O-pentaacetate] | 18.5 ± 4.6 | 82.8 ± 22.3 | 4.48 | –
O=c1c(-c2ccc(O)cc2)coc2cc(O)cc(O)c12 [Genistein] | 9.5 ± 1.9 | 47.8 ± 15.9 | – | IC50 (PDE4 [4]; reported by Nichols and Morimoto [18], read-out: IC50 for PDE4 inhibition): 5 µM
O=c1cc(-c2ccc(O)c(O)c2)oc2cc(O[C@@H]3O[C@H](CO)[C@@H](O)[C@H](O)[C@H]3O)cc(O)c12 [Luteolin-7-glucoside] | – | > 300 | >7 | –
O=c1c(O)c(-c2cc(O)c(O)c(O)c2)oc2cc(O)cc(O)c12 [Myricetin] | 39.8 ± 2.1 | > 300 | >7.5 | –
COc1cc(O)c2c(=O)c(-c3ccc(O)cc3)coc2c1 [Prunetin] | 61.9 ± 17.3 | > 300 | >4.8 | –
COc1cc(OC)c2c(=O)c(OC)c(-c3ccc(OC)c(OC)c3)oc2c1 [Quercetin-3,5,7,3′,4′-O-petamethylether] | 5.1 ± 1.4 | 56 ± 22.7 | 11 | –
O=c1c(O)c(-c2ccc(O)c(O)c2)oc2cc(O)cc(O)c12 [Quercetin] | 9.9 ± 2.5 | > 300 | >30 | –
COc1c(-c2ccc(OC(C)=O)c(OC(C)=O)c2)oc2cc(OC(C)=O)cc(OC(C)=O)c2c1=O [Quercetin-3-O-methyl-5,7,3′,4′-O-tetraacetate] | 3.9 ± 0.6 | 3.9 ± 1.4 | 1 | –
COc1ccc(-c2coc3cc(O)cc(O)c3c2=O)cc1 [Biochanin A] | 8.5 ± 0.1 | > 300 | >35 | –
COc1cc(O)c2c(c1)OC(c1ccc(OC)c(OC)c1)CC2=O (stereo not drawn) [Hesperetin-7,3′-O-dimethylether (HDME), Hesperetin-7,3′-O-dimethylether] | 3 ± 0.9 | 107 ± 39.5 | 35.5 | –
COc1ccc(C2CC(=O)c3c(OC(C)=O)cc(OC(C)=O)cc3O2)cc1OC(C)=O (stereo not drawn) [Hesperetin-5,7,3′-O-triacetate (HTA), Hesperetin-5,7,3′-O-triacetate] | 14.4 ± 1.8 | > 300 | >21 | –
COc1c(-c2ccc(O)c(O)c2)oc2cc(O)cc(O)c2c1=O [Qercetin-3-O-methylether (3-MQ), Qercetin-3-O-methylether] | 28.5 ± 5.8 | 17.4 ± 4 | 0.61 | –
COc1cc(O)c2c(=O)c(OC)c(-c3ccc(OC)c(O)c3)oc2c1 [Quercetin-3,7,4′-O-trimethylether] | 15.8 ± 4.4 | > 300 | >19 | –
COc1ccc([C@]2(C#N)CC[C@@H](C(=O)O)CC2)cc1OC1CCCC1 [cilomilast] | – | – | – | PDE4H/PDE4L ratio (PDE4H): about 1
COc1cc(OC)c2c(c1)OC(c1ccc(OC)c(OC)c1)CC2=O (stereo not drawn) [Hesperetin-5,7,3′-O-trimethylether] | 9.4 ± 2.9 | 171 ± 32.9 | 18 | –
COc1ccc(C2CNC(=O)C2)cc1OC1CCCC1 (stereo not drawn) [Rolipram, reference compound] | […] | – | […] | EC50 ([2]; reference drugs): 0.0052 ± 0.0019 µM; IC50 (PDE4 [4]; literature [23], read-out: IC50 for binding PDE4L): […]; EC50 (PDE4H; literature [23], read-out: EC50 for binding PDE4H): […]; PDE4H/PDE4L ratio (PDE4H): […]
COc1ccc(-c2cc(=O)c3c(O)cc(O)cc3o2)cc1O [Diosmetin] | 20.2 ± 2.4 | – | – | –
O=C(Nc1c(Cl)cncc1Cl)C(=O)c1cn(Cc2ccc(F)cc2)c2ccc(O)cc12 [AWD-12-281, N-(3,5-dichloro-pyrid-4-yl)-[1-(4-fluorobenzyl)-5-hydroxy-indole-3-yl]-glyo xylic acid amide] | – | – | – | PDE4H/PDE4L ratio (PDE4H): about 11
COc1cc(O)c2c(=O)c(OC)c(-c3ccc(OC)c(OC)c3)oc2c1 [Quercetin-3,7,3′,4′-O-tetramethylether] | > 100 | > 300 | – | –
O=C(Nc1c(Cl)cncc1Cl)c1ccc(OC(F)F)c(OCC2CC2)c1 [roflumilast] | – | – | – | PDE4H/PDE4L ratio (PDE4H): 3
CCCCOc1cc(CC2CNC(=O)N2)ccc1OC (stereo not drawn) [Ro 20-1724, reference compound] | 8.7 ± 1.9 | – | – | EC50 ([2]; reference drugs): 0.087 ± 0.029 µM
